Experimental data published in PubChem BioAssay (NCI).
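Results reflect a 48-hour exposure of cells in 96-well plates to compound at five concentrations. TGI: total growth inhibition.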

Columns and labels:
Assay in all cases: growth of human tumour cells (NCI), 48 h
HOP-92 NSCLC = system: HOP-92 NSCLC
KM12 colon = system: KM12 colon
MALME-3M melanoma = system: MALME-3M melanoma
MOLT-4 leukemia = system: MOLT-4 leukemia
NCI-H23 lung = system: NCI-H23 lung
NCI-H522 lung = system: NCI-H522 lung
OVCAR-8 ovarian = system: OVCAR-8 ovarian
RPMI-8226 leukemia = system: RPMI-8226 leukemia
SK-MEL-2 melanoma = system: SK-MEL-2 melanoma
TK-10 renal = system: TK-10 renal
U251 CNS = system: U251 CNS
UACC-257 melanoma = system: UACC-257 melanoma
EKVX NSCLC = system: EKVX NSCLC
HS 578T breast = system: HS 578T breast
MDA-MB-231 breast = system: MDA-MB-231 breast

Cn1ncnc1CCc1ccccc1
TGI (HOP-92 NSCLC): > 100 µM
TGI (KM12 colon): > 100 µM
TGI (MALME-3M melanoma): > 100 µM
TGI (MOLT-4 leukemia): > 100 µM
TGI (NCI-H23 lung): > 100 µM
TGI (NCI-H522 lung): > 100 µM
TGI (OVCAR-8 ovarian): > 100 µM
TGI (RPMI-8226 leukemia): > 100 µM
TGI (SK-MEL-2 melanoma): > 100 µM
TGI (TK-10 renal): > 100 µM
TGI (U251 CNS): > 100 µM
TGI (UACC-257 melanoma): > 100 µM

CC(C)C(/C=C/c1ccc(Br)cc1)=N\NC(N)=O
TGI (EKVX NSCLC): > 100 µM
TGI (HOP-92 NSCLC): > 100 µM
TGI (KM12 colon): > 100 µM
TGI (MOLT-4 leukemia): > 100 µM
TGI (NCI-H23 lung): > 100 µM
TGI (NCI-H522 lung): > 100 µM
TGI (OVCAR-8 ovarian): > 100 µM
TGI (RPMI-8226 leukemia): > 100 µM
TGI (SK-MEL-2 melanoma): > 100 µM
TGI (TK-10 renal): > 100 µM
TGI (U251 CNS): > 100 µM
TGI (UACC-257 melanoma): > 100 µM

O=c1cc(-c2ccccc2)oc2cc(OCCSCCCCCCCCCCSCCOc3ccc4c(=O)cc(-c5ccccc5)oc4c3)ccc12
TGI (EKVX NSCLC): > 100 µM
TGI (HOP-92 NSCLC): > 100 µM
TGI (KM12 colon): > 100 µM
TGI (MALME-3M melanoma): > 100 µM
TGI (MOLT-4 leukemia): > 100 µM
TGI (NCI-H23 lung): > 100 µM
TGI (NCI-H522 lung): > 100 µM
TGI (OVCAR-8 ovarian): > 100 µM
TGI (RPMI-8226 leukemia): > 100 µM
TGI (SK-MEL-2 melanoma): > 100 µM
TGI (TK-10 renal): > 100 µM
TGI (U251 CNS): > 100 µM
TGI (UACC-257 melanoma): > 100 µM

COC(=O)c1ccccc1/C=C1\Cc2cc(C)c(C)cc2C1=O
TGI (EKVX NSCLC): > 100 µM
TGI (HOP-92 NSCLC): 59.2 µM
TGI (HS 578T breast): > 100 µM
TGI (KM12 colon): > 100 µM
TGI (MALME-3M melanoma): > 100 µM
TGI (MOLT-4 leukemia): > 100 µM
TGI (NCI-H522 lung): > 100 µM
TGI (OVCAR-8 ovarian): > 100 µM
TGI (RPMI-8226 leukemia): > 100 µM
TGI (SK-MEL-2 melanoma): 68.3 µM
TGI (TK-10 renal): 86.6 µM
TGI (U251 CNS): 96.8 µM
TGI (UACC-257 melanoma): > 100 µM

CC(=O)NNc1nc(C)c(C(/C=C/c2ccc(Cl)cc2)=N/NC(=O)C[N+](C)(C)C)s1
TGI (EKVX NSCLC): > 100 µM
TGI (HOP-92 NSCLC): > 100 µM
TGI (KM12 colon): > 100 µM
TGI (MALME-3M melanoma): > 100 µM
TGI (MOLT-4 leukemia): > 100 µM
TGI (NCI-H23 lung): > 100 µM
TGI (NCI-H522 lung): > 100 µM
TGI (SK-MEL-2 melanoma): > 100 µM
TGI (TK-10 renal): > 100 µM
TGI (UACC-257 melanoma): > 100 µM

O=C=NCCCCCCN1C(=O)N2C(c3ccccc3)N(CCCCCCN=C=O)C(=O)N2C1c1ccccc1 (configuration not stated)
TGI (EKVX NSCLC): > 100 µM
TGI (HOP-92 NSCLC): > 100 µM
TGI (KM12 colon): > 100 µM
TGI (MALME-3M melanoma): > 100 µM
TGI (MDA-MB-231 breast): > 100 µM
TGI (MOLT-4 leukemia): > 100 µM
TGI (NCI-H23 lung): > 100 µM
TGI (OVCAR-8 ovarian): > 100 µM
TGI (RPMI-8226 leukemia): > 100 µM
TGI (SK-MEL-2 melanoma): > 100 µM
TGI (TK-10 renal): > 100 µM
TGI (U251 CNS): > 100 µM
TGI (UACC-257 melanoma): > 100 µM

CC1(C)CC(=O)c2c(nc(SSc3nc4c(c(-c5ccccc5)c3C#N)C(=O)CC(C)(C)C4)c(C#N)c2-c2ccccc2)C1
TGI (EKVX NSCLC): > 10 µM
TGI (HOP-92 NSCLC): > 10 µM
TGI (HS 578T breast): > 10 µM
TGI (KM12 colon): > 10 µM
TGI (MALME-3M melanoma): > 10 µM
TGI (MOLT-4 leukemia): > 10 µM
TGI (NCI-H23 lung): > 10 µM
TGI (NCI-H522 lung): > 10 µM
TGI (OVCAR-8 ovarian): > 10 µM
TGI (RPMI-8226 leukemia): > 10 µM
TGI (SK-MEL-2 melanoma): > 10 µM
TGI (TK-10 renal): > 10 µM
TGI (U251 CNS): > 10 µM
TGI (UACC-257 melanoma): > 10 µM

C=CCN(C)CN(C)c1nc(N(C)C)nc(N(C)C)n1
TGI (EKVX NSCLC): > 100 µM
TGI (HOP-92 NSCLC): > 100 µM
TGI (KM12 colon): > 100 µM
TGI (MALME-3M melanoma): > 100 µM
TGI (MOLT-4 leukemia): > 100 µM
TGI (NCI-H23 lung): > 100 µM
TGI (NCI-H522 lung): 51.5 µM
TGI (OVCAR-8 ovarian): > 100 µM
TGI (RPMI-8226 leukemia): > 100 µM
TGI (SK-MEL-2 melanoma): > 100 µM
TGI (TK-10 renal): > 100 µM
TGI (U251 CNS): > 100 µM
TGI (UACC-257 melanoma): > 100 µM

COc1ccc([C@@]23OC[C@@H]4[C@@H](OC[C@@H]42)c2cc(OC)c(OC)cc23)cc1OC
TGI (EKVX NSCLC): > 100 µM
TGI (KM12 colon): > 100 µM
TGI (MALME-3M melanoma): > 100 µM
TGI (MDA-MB-231 breast): > 100 µM
TGI (MOLT-4 leukemia): > 100 µM
TGI (NCI-H23 lung): > 100 µM
TGI (NCI-H522 lung): > 100 µM
TGI (RPMI-8226 leukemia): > 100 µM
TGI (SK-MEL-2 melanoma): > 100 µM
TGI (TK-10 renal): > 100 µM
TGI (U251 CNS): > 100 µM

COc1cc2c(cc1OC)C(=O)C(C1=C(SC(=N)N)C(=O)c3cc(OC)c(OC)cc31)C2 (configuration not stated)
TGI (EKVX NSCLC): > 100 µM
TGI (KM12 colon): > 100 µM
TGI (MALME-3M melanoma): > 100 µM
TGI (MOLT-4 leukemia): > 100 µM
TGI (NCI-H23 lung): > 100 µM
TGI (NCI-H522 lung): > 100 µM
TGI (OVCAR-8 ovarian): > 100 µM
TGI (RPMI-8226 leukemia): > 100 µM
TGI (SK-MEL-2 melanoma): > 100 µM
TGI (U251 CNS): > 100 µM
TGI (UACC-257 melanoma): > 100 µM

CN(C)C(=O)Oc1ccc(-c2cn3cc(NC(=O)c4ccccc4)ccc3n2)cc1
TGI (EKVX NSCLC): > 100 µM
TGI (HOP-92 NSCLC): > 100 µM
TGI (KM12 colon): > 100 µM
TGI (MDA-MB-231 breast): > 100 µM
TGI (MOLT-4 leukemia): > 100 µM
TGI (NCI-H23 lung): > 100 µM
TGI (NCI-H522 lung): > 100 µM
TGI (OVCAR-8 ovarian): > 100 µM
TGI (RPMI-8226 leukemia): > 100 µM
TGI (SK-MEL-2 melanoma): > 100 µM
TGI (TK-10 renal): > 100 µM
TGI (U251 CNS): > 100 µM
TGI (UACC-257 melanoma): > 100 µM

CSc1nc2[nH]c(=O)c(C)nc2c(=O)[nH]1
TGI (EKVX NSCLC): > 100 µM
TGI (HOP-92 NSCLC): > 100 µM
TGI (KM12 colon): > 100 µM
TGI (MALME-3M melanoma): > 100 µM
TGI (MOLT-4 leukemia): > 100 µM
TGI (NCI-H23 lung): > 100 µM
TGI (NCI-H522 lung): > 100 µM
TGI (OVCAR-8 ovarian): > 100 µM
TGI (RPMI-8226 leukemia): > 100 µM
TGI (SK-MEL-2 melanoma): > 100 µM
TGI (TK-10 renal): > 100 µM
TGI (U251 CNS): > 100 µM
TGI (UACC-257 melanoma): > 100 µM

N#CCCN(CCN(C(=O)Nc1ccccc1)c1ccccc1)C(=O)Nc1ccccc1
TGI (EKVX NSCLC): > 100 µM
TGI (HOP-92 NSCLC): > 100 µM
TGI (KM12 colon): > 100 µM
TGI (MALME-3M melanoma): > 100 µM
TGI (MDA-MB-231 breast): > 100 µM
TGI (MOLT-4 leukemia): > 84.5 µM
TGI (NCI-H23 lung): > 100 µM
TGI (NCI-H522 lung): > 100 µM
TGI (OVCAR-8 ovarian): > 100 µM
TGI (RPMI-8226 leukemia): > 69.2 µM
TGI (SK-MEL-2 melanoma): > 100 µM
TGI (TK-10 renal): > 100 µM
TGI (U251 CNS): > 100 µM
TGI (UACC-257 melanoma): > 100 µM
